Data from patent US9050341B2, “Methods of treating drug resistant and other tumors by administering 6,7-dialkoxy quinazoline derivatives” (NATCO PHARMA LIMITED, priority 2009, dated 2015).

Key:
Assay in all cases: KinomeScan kinase profiling
Format in all cases: binding
[1] = target: T1, DAPK2 (Homo sapiens, UniProt Q9UIK4)
T1 construct: purchased Ambit Biosciences Corp (KinomeScan); host or cells: T7 phage in E. coli host derived from BL21
Method in brief: (§1)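 Kinases were expressed as T7 phage fusions in a BL21-derived E. coli host and the cleared lysates were used. Ligand beads were blocked with biotin and buffer (1% BSA, 0.05% Tween 20, 1 mM DTT). Compounds came from 40× DMSO stocks, and phage in the eluates was titred by qPCR.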

[2] = target: T2, GSK3B (Homo sapiens, UniProt P49841)
T2 construct: host or cells: E. coli host derived from BL21, infected with T7 phage
Method in brief: as §1

[3] = target: T3, FGFR3 (G697C) (Homo sapiens, UniProt P22607, G697C)
T3 construct: host or cells: E. coli host derived from BL21, infected with T7 phage
T3 sequence (P22607 23-806 G697C): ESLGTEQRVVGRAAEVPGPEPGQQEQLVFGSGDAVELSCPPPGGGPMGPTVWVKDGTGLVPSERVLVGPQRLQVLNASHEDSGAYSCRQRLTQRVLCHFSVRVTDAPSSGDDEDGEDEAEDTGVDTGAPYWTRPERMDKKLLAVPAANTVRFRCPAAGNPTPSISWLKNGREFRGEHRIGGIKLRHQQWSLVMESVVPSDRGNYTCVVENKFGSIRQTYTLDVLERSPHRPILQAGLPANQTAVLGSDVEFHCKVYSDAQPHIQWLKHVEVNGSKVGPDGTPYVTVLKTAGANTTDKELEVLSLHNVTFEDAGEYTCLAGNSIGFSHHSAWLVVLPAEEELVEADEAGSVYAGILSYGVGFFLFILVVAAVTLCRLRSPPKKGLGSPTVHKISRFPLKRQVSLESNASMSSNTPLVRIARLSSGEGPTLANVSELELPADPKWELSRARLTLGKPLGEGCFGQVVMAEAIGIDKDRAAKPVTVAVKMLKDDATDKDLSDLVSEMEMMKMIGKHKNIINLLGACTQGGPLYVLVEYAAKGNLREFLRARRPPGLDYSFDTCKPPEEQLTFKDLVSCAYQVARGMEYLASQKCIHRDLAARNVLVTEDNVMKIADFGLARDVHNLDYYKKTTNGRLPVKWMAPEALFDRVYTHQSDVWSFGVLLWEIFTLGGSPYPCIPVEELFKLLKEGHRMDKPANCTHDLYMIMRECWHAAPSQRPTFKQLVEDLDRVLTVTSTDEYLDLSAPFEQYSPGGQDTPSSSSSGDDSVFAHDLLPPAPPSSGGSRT
Method in brief: as §1

[4] = target: T4, MAP4K5 (Homo sapiens, UniProt Q9Y4K4)
T4 construct: host or cells: E. coli derived from BL21, infected with T7 phage
T4 sequence (Q9Y4K4 whole entry): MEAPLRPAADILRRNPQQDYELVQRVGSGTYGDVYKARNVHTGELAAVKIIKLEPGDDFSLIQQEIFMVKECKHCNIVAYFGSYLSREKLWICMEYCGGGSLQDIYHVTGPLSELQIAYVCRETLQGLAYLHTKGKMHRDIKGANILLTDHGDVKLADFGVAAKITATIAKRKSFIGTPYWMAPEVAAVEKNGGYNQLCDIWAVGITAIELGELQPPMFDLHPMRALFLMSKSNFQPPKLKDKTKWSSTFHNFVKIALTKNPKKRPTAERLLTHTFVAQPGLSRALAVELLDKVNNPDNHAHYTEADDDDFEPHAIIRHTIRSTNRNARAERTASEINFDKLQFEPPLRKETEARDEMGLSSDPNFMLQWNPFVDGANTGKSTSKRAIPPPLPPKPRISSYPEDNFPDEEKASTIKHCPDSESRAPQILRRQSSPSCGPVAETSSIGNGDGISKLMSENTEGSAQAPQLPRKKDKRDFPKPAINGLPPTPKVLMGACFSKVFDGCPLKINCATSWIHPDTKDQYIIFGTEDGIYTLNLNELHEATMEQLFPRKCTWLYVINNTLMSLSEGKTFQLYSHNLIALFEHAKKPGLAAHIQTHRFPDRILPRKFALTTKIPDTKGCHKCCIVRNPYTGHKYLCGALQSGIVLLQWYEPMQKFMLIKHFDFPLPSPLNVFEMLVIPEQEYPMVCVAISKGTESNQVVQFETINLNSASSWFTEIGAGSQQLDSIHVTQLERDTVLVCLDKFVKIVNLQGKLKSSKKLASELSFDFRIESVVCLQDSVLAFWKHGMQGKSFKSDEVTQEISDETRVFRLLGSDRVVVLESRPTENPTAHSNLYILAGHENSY
Method in brief: as §1

[5] = target: T5, PLK3 (Homo sapiens, UniProt Q9H4B4)
T5 construct: purchased Ambit Biosciences Corp (KinomeScan); host or cells: E. coli host derived from BL21, infected with T7 phage
T5 sequence (Q9H4B4 whole entry): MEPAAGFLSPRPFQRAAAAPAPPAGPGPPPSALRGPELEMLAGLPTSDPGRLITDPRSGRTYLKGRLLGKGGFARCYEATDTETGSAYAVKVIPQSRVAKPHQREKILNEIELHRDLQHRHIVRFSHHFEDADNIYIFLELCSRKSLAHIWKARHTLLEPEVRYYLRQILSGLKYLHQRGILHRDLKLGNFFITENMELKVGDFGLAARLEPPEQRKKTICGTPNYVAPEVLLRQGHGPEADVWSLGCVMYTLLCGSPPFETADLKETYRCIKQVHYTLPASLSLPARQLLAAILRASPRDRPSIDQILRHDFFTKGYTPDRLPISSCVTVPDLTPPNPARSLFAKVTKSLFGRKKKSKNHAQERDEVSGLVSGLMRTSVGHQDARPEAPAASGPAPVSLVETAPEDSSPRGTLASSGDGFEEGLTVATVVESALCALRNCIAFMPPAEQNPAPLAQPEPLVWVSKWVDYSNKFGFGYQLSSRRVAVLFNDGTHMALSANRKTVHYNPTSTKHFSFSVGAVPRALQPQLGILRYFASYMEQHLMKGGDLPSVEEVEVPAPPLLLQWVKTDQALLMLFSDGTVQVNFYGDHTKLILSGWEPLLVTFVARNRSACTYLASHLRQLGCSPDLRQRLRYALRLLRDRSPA
Method in brief: as §1

[6] = target: T6, SgK085 (Homo sapiens, UniProt Q86YV6)
T6 construct: host or cells: E. coli host derived from the BL21 strain, T7 phage lysate
Method in brief: as §1

[7] = target: T7, MEK3 (Homo sapiens, UniProt P46734)
T7 construct: host or cells: E. coli derived from BL21, infected with T7 phage
Method in brief: as §1

[8] = target: T8, AMPK-alpha2 (Homo sapiens, UniProt P54646)
T8 construct: host or cells: E. coli host derived from BL21 (T7 phage lysate)
Method in brief: as §1

[9] = target: T9, EPHA5 (Homo sapiens, UniProt P54756)
T9 construct: host or cells: E. coli host derived from BL21, T7 phage lysate
Method in brief: as §1

[10] = target: T10, EPHB3 (Homo sapiens, UniProt P54753)
T10 construct: host or cells: E. coli host derived from BL21, T7 phage lysate
Method in brief: as §1

[11] = target: T11, STK35 (Homo sapiens, UniProt Q8TDR2)
T11 construct: host or cells: E. coli host derived from the BL21 strain, T7 phage lysate
Method in brief: as §1

[12] = target: T12, BRAF (V600E) (Homo sapiens, UniProt P15056, V600E)
T12 construct: purchased Ambit Biosciences Corp (KinomeScan); host or cells: E. coli host derived from the BL21 strain, T7 phage
T12 sequence (P15056 whole entry V600E): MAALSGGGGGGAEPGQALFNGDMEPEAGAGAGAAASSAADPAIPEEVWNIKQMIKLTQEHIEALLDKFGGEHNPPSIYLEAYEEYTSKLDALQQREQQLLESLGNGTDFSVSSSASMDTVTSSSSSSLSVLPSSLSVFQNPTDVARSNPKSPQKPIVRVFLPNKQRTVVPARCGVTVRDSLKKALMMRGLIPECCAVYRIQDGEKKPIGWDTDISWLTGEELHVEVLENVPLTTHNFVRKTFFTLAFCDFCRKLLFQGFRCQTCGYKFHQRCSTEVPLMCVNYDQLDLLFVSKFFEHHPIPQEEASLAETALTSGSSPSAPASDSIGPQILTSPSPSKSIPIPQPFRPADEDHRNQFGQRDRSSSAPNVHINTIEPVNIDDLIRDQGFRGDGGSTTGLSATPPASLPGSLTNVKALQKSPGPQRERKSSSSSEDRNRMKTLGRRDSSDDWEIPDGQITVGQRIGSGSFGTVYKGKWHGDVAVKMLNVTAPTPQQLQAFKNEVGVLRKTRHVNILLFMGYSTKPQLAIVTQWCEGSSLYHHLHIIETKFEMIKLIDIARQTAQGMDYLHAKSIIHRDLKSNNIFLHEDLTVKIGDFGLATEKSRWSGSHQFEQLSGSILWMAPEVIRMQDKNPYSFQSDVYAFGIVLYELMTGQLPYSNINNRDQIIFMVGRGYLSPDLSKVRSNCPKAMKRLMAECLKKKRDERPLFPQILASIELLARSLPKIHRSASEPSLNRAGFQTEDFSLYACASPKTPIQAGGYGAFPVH
Method in brief: as §1

[13] = target: T13, LKB1 (Homo sapiens, UniProt Q15831)
T13 construct: host or cells: E. coli derived from BL21, infected with T7 phage
Method in brief: as §1

[14] = target: T14, ZAK (Homo sapiens, UniProt Q9NYL2)
T14 construct: host or cells: E. coli host derived from the BL21 strain, infected with T7 phage
T14 sequence (Q9NYL2 whole entry): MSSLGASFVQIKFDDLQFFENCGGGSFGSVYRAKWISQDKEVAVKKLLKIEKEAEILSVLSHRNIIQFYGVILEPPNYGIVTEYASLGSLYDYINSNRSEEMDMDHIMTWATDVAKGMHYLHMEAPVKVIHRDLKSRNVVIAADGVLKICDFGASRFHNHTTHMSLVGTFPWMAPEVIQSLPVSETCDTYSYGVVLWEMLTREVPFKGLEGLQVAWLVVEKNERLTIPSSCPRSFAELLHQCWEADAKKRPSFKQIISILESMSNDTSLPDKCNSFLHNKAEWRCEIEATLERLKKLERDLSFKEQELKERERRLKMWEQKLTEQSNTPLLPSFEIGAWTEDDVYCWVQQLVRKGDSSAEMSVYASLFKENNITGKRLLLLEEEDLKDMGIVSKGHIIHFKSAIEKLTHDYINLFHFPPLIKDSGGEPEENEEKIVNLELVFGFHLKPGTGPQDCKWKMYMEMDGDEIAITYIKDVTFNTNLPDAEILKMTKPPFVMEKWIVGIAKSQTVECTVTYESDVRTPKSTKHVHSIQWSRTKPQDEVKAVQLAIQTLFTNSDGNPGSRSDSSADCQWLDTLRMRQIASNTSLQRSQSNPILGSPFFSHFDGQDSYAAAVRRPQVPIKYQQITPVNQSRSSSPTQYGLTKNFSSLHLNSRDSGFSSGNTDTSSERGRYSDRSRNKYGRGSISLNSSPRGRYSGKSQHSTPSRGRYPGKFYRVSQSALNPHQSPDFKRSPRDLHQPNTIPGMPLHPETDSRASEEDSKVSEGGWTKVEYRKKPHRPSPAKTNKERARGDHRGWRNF
Method in brief: as §1

[15] = target: T15, EPHA4 (Homo sapiens, UniProt P54764)
T15 construct: host or cells: E. coli host derived from BL21, T7 phage lysate
Method in brief: as §1

[16] = target: T16, PFTK1 (Homo sapiens, UniProt O94921)
T16 construct: host or cells: E. coli host derived from the BL21 strain, infected with T7 phage
T16 sequence (O94921 whole entry): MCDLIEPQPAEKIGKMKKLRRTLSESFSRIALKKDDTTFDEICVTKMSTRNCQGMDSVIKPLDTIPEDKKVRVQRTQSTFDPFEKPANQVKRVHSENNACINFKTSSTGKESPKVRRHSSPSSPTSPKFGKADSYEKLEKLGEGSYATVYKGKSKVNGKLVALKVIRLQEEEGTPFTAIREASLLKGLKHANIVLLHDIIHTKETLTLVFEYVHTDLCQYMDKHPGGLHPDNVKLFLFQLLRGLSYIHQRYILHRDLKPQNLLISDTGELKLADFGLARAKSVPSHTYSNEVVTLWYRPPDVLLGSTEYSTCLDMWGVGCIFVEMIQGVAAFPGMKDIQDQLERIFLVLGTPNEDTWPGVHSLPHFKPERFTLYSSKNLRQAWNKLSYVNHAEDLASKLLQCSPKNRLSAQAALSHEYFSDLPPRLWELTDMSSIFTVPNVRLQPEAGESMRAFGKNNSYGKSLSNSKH
Method in brief: as §1

[17] = target: T17, AKT3 (Homo sapiens, UniProt Q9Y243)
T17 construct: host or cells: E. coli host derived from BL21 (T7 phage lysate)
T17 sequence (Q9Y243 whole entry): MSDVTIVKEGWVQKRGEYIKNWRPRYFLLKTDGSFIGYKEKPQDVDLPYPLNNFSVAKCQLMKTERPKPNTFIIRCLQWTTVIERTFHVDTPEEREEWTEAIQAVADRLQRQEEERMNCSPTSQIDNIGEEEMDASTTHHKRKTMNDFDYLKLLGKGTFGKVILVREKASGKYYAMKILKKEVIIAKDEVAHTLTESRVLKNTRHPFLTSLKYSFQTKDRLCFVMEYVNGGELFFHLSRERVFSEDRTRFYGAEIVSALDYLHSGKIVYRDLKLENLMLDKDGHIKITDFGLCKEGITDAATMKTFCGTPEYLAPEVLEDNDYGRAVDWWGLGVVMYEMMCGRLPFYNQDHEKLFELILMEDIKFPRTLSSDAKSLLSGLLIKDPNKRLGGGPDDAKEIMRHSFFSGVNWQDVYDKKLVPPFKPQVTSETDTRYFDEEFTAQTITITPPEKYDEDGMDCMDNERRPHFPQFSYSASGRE
Method in brief: as §1

[18] = target: T18, PRKCQ (Homo sapiens, UniProt Q04759)
T18 construct: purchased Ambit Biosciences Corp (KinomeScan); host or cells: E. coli host derived from BL21, infected with T7 phage
Method in brief: as §1

[19] = target: T19, MST1 (Homo sapiens, UniProt Q13043)
T19 construct: host or cells: T7 phage in E. coli host derived from BL21
Method in brief: as §1

[20] = target: T20, MYO3A (Homo sapiens, UniProt Q8NEV4)
T20 construct: host or cells: T7 phage in E. coli host derived from BL21
Method in brief: as §1

[21] = target: T21, STK16 (Homo sapiens, UniProt O75716)
T21 construct: host or cells: E. coli host derived from the BL21 strain, T7 phage lysate
Method in brief: as §1

[22] = target: T22, KIT (V559D, T670I) (Homo sapiens, UniProt P10721, T670I/V559D)
T22 construct: host or cells: T7 phage in E. coli host derived from BL21
Method in brief: as §1

[23] = target: T23, PRKG2 (Homo sapiens, UniProt Q13237)
T23 construct: purchased Ambit Biosciences Corp (KinomeScan); host or cells: E. coli host derived from BL21, infected with T7 phage
Method in brief: as §1

For `C#Cc1cccc(Nc2ncnc3cc(OC)c(OCCCN4CCOCC4)cc23)c1` [NRC-2694, N-(3-ethylnylphenyl)-7-methoxy-6-[3-(4-morpholinyl)propoxy]-4-quinazolinamine], the “% Ctrl @ 10000 nM” value [1] was 61 % Ctrl, the “% Ctrl @ 10000 nM” value [2] was 100 % Ctrl and the “% Ctrl @ 10000 nM” value [3] was 82 % Ctrl. The “% Ctrl @ 10000 nM” value [4] was 23 % Ctrl, the “% Ctrl @ 10000 nM” value [5] was 97 % Ctrl and the “% Ctrl @ 10000 nM” value [6] was 84 % Ctrl. The “% Ctrl @ 10000 nM” value [7] was 100 % Ctrl, the “% Ctrl @ 10000 nM” value [8] was 61 % Ctrl and the “% Ctrl @ 10000 nM” value [9] was 86 % Ctrl. For the same compound, the “% Ctrl @ 10000 nM” value [10] was 75 % Ctrl, the “% Ctrl @ 10000 nM” value [11] was 52 % Ctrl and the “% Ctrl @ 10000 nM” value [12] was 73 % Ctrl. For the same compound, the “% Ctrl @ 10000 nM” value [13] was 69 % Ctrl, the “% Ctrl @ 10000 nM” value [14] was 74 % Ctrl and the “% Ctrl @ 10000 nM” value [15] was 64 % Ctrl. The “% Ctrl @ 10000 nM” value [16] was 71 % Ctrl, the “% Ctrl @ 10000 nM” value [17] was 66 % Ctrl and the “% Ctrl @ 10000 nM” value [18] was 83 % Ctrl. For the same compound, the “% Ctrl @ 10000 nM” value [19] was 100 % Ctrl, the “% Ctrl @ 10000 nM” value [20] was 70 % Ctrl and the “% Ctrl @ 10000 nM” value [21] was 100 % Ctrl. The “% Ctrl @ 10000 nM” value [22] was 28 % Ctrl and the “% Ctrl @ 10000 nM” value [23] was 40 % Ctrl.
